{
  "source": "patent US8415374B2",
  "about": "“Combinations of hepatitis C virus inhibitors” (Bristol-Myers Squibb Company, priority 2009, dated 2013)",
  "type_in_all_cases": "cell-based, Hepatitis C virus",
  "key": {"HCV replicon [1]": {"biological_target": "HCV replicon", "test": "HCV replicon luciferase assay, triple combinations with lambda interferons (genotype not stated)", "conditions": "monotherapy (Table 6)"}, "HCV replicon [2]": {"tested_on": "HCV replicon", "test": "HCV replicon luciferase assay, triple combinations with lambda interferons (genotype not stated)", "protocol": "(§1) The Huh-7 cell-line used for these studies was obtained from Dr. Ralf Bartenschlager (University of Heidelberg, Heidelberg, Germany) and was propagated in DMEM containing 10% FBS, 10 U/ml penicillin and 10 μg/ml streptomycin. The HCV replicons used in these studies were generated at Bristol-Myers Squibb using the procedure described in WO2004014852. The coding sequence of the published genotype 1b HCV replicon (Lohmann, V., F. Korner, J.-O. Koch, U. Herian, L. Theilmann, and R. Bartenschlager 1999, Science 285:110-113) was synthesized by Operon Technologies, Inc. (Alameda, Calif.) using the sequence set forth in EMBL Accession No. AJ242652, nucleotides 1801 to 7758. The functional replicon was then assembled in plasmid pGem9zf(+) (Promega, Madison, Wis.) using standard molecular biology techniques. To create a replicon encoding a luciferase reporter, the gene encoding humanized Renilla Luciferase protein was introduced upstream of the neomycin phosphotransferase gene. The resulting replicon consists of (i) the HCV 5′ UTR fused to the first 12 amino acids of the capsid protein, (ii) the renilla luciferase gene, (iii) the neomycin phosphotransferase gene (neo), (iv) the IRES from encephalomyocarditis virus (EMCV), and (v) HCV NS3 to NS5B genes and the HCV 3′ UTR.\n(§2) HCV replicon cell lines were isolated from colonies as described by Lohman, et. al (Lohmann, V., F. Korner, J.-O. Koch, U. Herian, L. Theilmann, and R. Bartenschlager 1999, Science 285:110-113) and used for all experiments. Briefly, replicon clones were linearized with ScaI and RNA transcripts synthesized in vitro using the T7 MegaScript transcription kit (Ambion, Austin, Tex.) according to manufacturer's directions. Ten to 20 μg of in vitro transcribed replicon RNA was introduced into 4−5×10^6 Huh-7 cells by transfection with DMRIE-C reagent (Invitrogen Corporation, Carlsbad, Calif.) following manufacturer's protocols. After 24 h, selective media containing 0.5 mg/mL Geneticin (G418, Gibco-BRL, Rockville, Md.) was added and media was changed every 3 to 5 days. After approximately 4 weeks, cells were expanded for further analysis. Cells were maintained at 37° C. in DMEM (Gibco-BRL, Rockville, Md.) with 10% heat inactivated calf serum (Sigma), penicillin/streptomycin, and 0.5 mg/ml G418.\n(§3) To determine compound efficacy, HCV replicon cells were plated at a density of 10^4 per well in 96-well plates in DMEM media containing 10% FBS. Following incubation overnight, compounds serially diluted in DMSO, or DMSO alone, were added to individual wells to a final DMSO concentration of 0.5%. Cell plates were then incubated at 37° C. for 3 days prior to assaying for cytotoxicity and HCV inhibition. Cell viability was measured using an Alamar blue assay and CC50 values were calculated using the median effect equation.\n(§4) Plates were then washed two times with PBS and renilla luciferase activity assayed using a Dual-Glo Luciferase Assay System (Promega Corporation, Madison, Wis.) according to the manufacturer's directions. Plates were read on a TopCount NXT Microplate Scintillation and Luminescence Counter (Packard Instrument Company). The 50% effective concentration (EC50) was calculated by using Excel Fit (Version 2.0, Build 30). Known x (compound concentration) and y (% relative to DMSO-only control wells) values were used to calculate the EC50 with Excel Fit equation 205, represented as y=A+((B−A)/(1+((C/x)^D))), where A and B equal the bottom and top plateaus of the curve, respectively, C equals the x value at the middle of the curve, and D equals the slope factor.\n(§5) For inhibitor combination studies, IFN-α and inhibitors of HCV NS5A and the NS3 protease were each tested at eleven concentrations. Stock solutions, 200 times the desired final assay concentration, were prepared by 3-fold dilution in DMSO prior to addition to cells/media. The compounds were tested as monotherapies and in combinations with the compound of formula (I) at various concentration ratios."}, "[3]": {"tested_on": "genotype 1a HCV replicon cells", "test": "HCV replicon luciferase assay, genotype 1a (monotherapy and combination studies)", "conditions": "genotype 1a replicon, monotherapy, 3 days"}, "[4]": {"tested_on": "genotype 1b HCV replicon cells", "test": "HCV replicon luciferase assay, genotype 1b (monotherapy and combination studies)", "protocol": "as §1, §2, §3, §4, §5"}},
  "note": "“And” between values parts separate entries of the source, which are not always exact repeats. Equal entries are not always repeated. Where two headings read alike, the source gives them in different places.",
  "data": [
    {"compound": "rIFNλ1: Recombinant IL-29 expressed in E. coli as a modified N-terminal methionylated form of human IL-29", "values": [
      {"measurement": "rIFNλ1 EC50", "setting": "HCV replicon [1]", "result": "0.52 ng/mL and 0.27 ng/mL and 0.53 ng/mL"}
    ]},
    {"compound": "COC(=O)N[C@H](C(=O)N1CCC[C@H]1c1ncc(-c2ccc(-c3ccc(-c4cnc([C@@H]5CCCN5C(=O)[C@@H](NC(=O)OC)C(C)C)[nH]4)cc3)cc2)[nH]1)C(C)C", "note": "[NS5A inhibitor of formula (I)]", "values": [
      {"measurement": "EC50", "setting": "HCV replicon [2]; Hepatitis C virus, monotherapy (Table 5), read-out: NS5A Inhibitor EC50", "result": 0.003, "unit": "nM"},
      {"measurement": "EC50", "setting": "HCV replicon [2]; Hepatitis C virus, monotherapy (Table 6), read-out: NS5A Inhibitor EC50", "result": 0.008, "unit": "nM"},
      {"measurement": "EC50", "setting": "HCV replicon [2]; monotherapy (Table 5), read-out: NS5A Inhibitor EC50", "result": 0.004, "unit": "nM"},
      {"measurement": "EC50", "setting": "HCV replicon [2]; monotherapy (Table 6), read-out: NS5A Inhibitor EC50", "result": "0.009 nM and 0.005 nM"},
      {"measurement": "EC50", "setting": "[3]; Hepatitis C virus, 72 h, read-out: NS5A Inhibitor EC50", "result": 0.037, "unit": "nM"},
      {"measurement": "EC50", "setting": "[3]; read-out: NS5A Inhibitor EC50", "result": 0.045, "unit": "nM"},
      {"measurement": "EC50", "setting": "[4]; Hepatitis C virus, 72 h, genotype 1b replicon, monotherapy, 3 days (Table 3), read-out: NS5A Inhibitor EC50", "result": 0.003, "unit": "nM"},
      {"measurement": "EC50", "setting": "[4]; Hepatitis C virus, genotype 1b replicon cells, monotherapy (Table 4), read-out: NS5A Inhibitor EC50", "result": 0.005, "unit": "nM"},
      {"measurement": "EC50", "setting": "[4]; genotype 1b replicon cells, monotherapy (Table 4), read-out: NS5A Inhibitor EC50", "result": 0.006, "unit": "nM"}
    ]},
    {"compound": "C=C[C@@H]1C[C@]1(NC(=O)[C@@H]1C[C@@H](Oc2ncc(OC)c3ccc(Cl)cc23)CN1C(=O)[C@@H](NC(=O)OC(C)(C)C)C(C)(C)C)C(=O)NS(=O)(=O)C1CC1", "note": "[NS3 protease inhibitor of formula (II)]", "values": [
      {"measurement": "EC50", "setting": "HCV replicon [2]; Hepatitis C virus, monotherapy (Table 5), read-out: NS3 Protease Inhibitor EC50", "result": 0.63, "unit": "nM"},
      {"measurement": "EC50", "setting": "HCV replicon [2]; Hepatitis C virus, monotherapy (Table 6), read-out: NS3 Protease Inhibitor EC50", "result": 1.4, "unit": "nM"},
      {"measurement": "EC50", "setting": "HCV replicon [2]; monotherapy (Table 5), read-out: NS3 Protease Inhibitor EC50", "result": "0.947 nM and 1.1 nM"},
      {"measurement": "EC50", "setting": "HCV replicon [2]; monotherapy (Table 6), read-out: NS3 Protease Inhibitor EC50", "result": "1.2 nM and 2.3 nM"},
      {"measurement": "EC50", "setting": "[3]; Hepatitis C virus, 72 h, read-out: NS3 Protease Inhibitor EC50", "result": 7.8, "unit": "nM"},
      {"measurement": "EC50", "setting": "[3]; read-out: NS3 Protease Inhibitor EC50", "result": 8.5, "unit": "nM"},
      {"measurement": "EC50", "setting": "[4]; Hepatitis C virus, 72 h, genotype 1b replicon, monotherapy, 3 days (Table 3), read-out: NS3 Protease Inhibitor EC50", "result": 0.5, "unit": "nM"},
      {"measurement": "EC50", "setting": "[4]; Hepatitis C virus, genotype 1b replicon cells, monotherapy (Table 4), read-out: NS3 Protease Inhibitor EC50", "result": 1.3, "unit": "nM"},
      {"measurement": "EC50", "setting": "[4]; genotype 1b replicon cells, monotherapy (Table 4), read-out: NS3 Protease Inhibitor EC50", "result": "2.2 nM and 1.9 nM and 1.5 nM"},
      {"measurement": "EC50", "setting": "[4]; genotype 1b replicon, monotherapy, 3 days (Table 3), read-out: NS3 Protease Inhibitor EC50", "result": 0.6, "unit": "nM"}
    ]}
  ]
}
